Results published in paper PMC10957775, “Integrated chemical characterization, metabolite profiling, and pharmacokinetics analysis of Zhijun Tangshen Decoction by UPLC-Q/TOF-MS” (Frontiers in Pharmacology, 2024).
Where two headings read alike, the source gives them in different places. Each block holds one molecule with its values, some of them ahead of it.

Key:
[1] = parameters: AUC(0→t) / Cmax: unit not given beside the values; conditions: rat, in vivo
DN = system: DN; parameters: method as in Guo et al., 2017; conditions: in vitro and in vivo; ref Guo et al., 2017; cited from earlier work
in vivo = conditions: male, Sprague-Dawley, rat, po; for half-life: t1/2
Method: (§1) Thirty male Sprague–Dawley rats (200 ± 20 g) were purchased from the Nanjing Qinglongshan Experimental Animal Center (Nanjing, China). […] All rats were divided randomly into two groups: ZJTSD-dosed group (n = 27) and control group (n = 3). The ZJTSD-dosed group was given the ZJTSD solution by gavage (i.g.) at a dosage of 1 mL/100 g body weight of rats, and the control group was given 0.9% normal saline at the same dose, twice a day for a week. After the last administration, the blood was collected from the hepatic portal vein at 15 min, 30 min, 1 h, 2 h, 4 h, 6 h, 8 h, 12 h, and 24 h, and 3 rats were taken at each time point.
(§2) The blood samples of rats were centrifuged at 4,000 rpm for 10 min to obtain the serum. The serum sample (1 mL) was processed with a 3-fold volume using methanol for protein precipitation, with epicoprostanol serving as the internal standard (digoxin and clarithromycin). After vortexing for 3 min, the mixture was centrifuged at 18,000 rpm for 10 min. Subsequently, the supernatant was evaporated at 45°C using a vacuum concentrator. After evaporating the solvent, 150 μL of methanol/water (1:1, v/v) was added, vortexed, sonicated, and then centrifuged at 18,000 rpm for 10 min at 4°C. The resulting supernatant was used for further analysis.
(§3) Liquid chromatographic separation was performed using an AB SCIEX LC™ 2.0 system (AB SCIEX, United States) fitted with an Acquity UPLC BEH C18 column (100 mm × 2.1 mm, 1.7 μm; Ireland). The mobile phases in negative and positive ion modes consisted of 0.1% FA aqueous solution (A) and acetonitrile containing 0.1% FA (B). The program of the elution gradient was set as follows: 0∼5 min, 2%∼35 %B; 5∼7 min, 35%∼50%; 7∼10 min, 50%∼70%; 10∼15 min, 70%∼90 %B; 15∼18 min, 90%∼90 %B; 18∼18.5 min, 90%∼2 %B; and 18.5∼20 min, 2%∼2 %B. The injection volume was 3 µL. The flow rate and the column temperature were set at 0.3 mL/min and 40°C, respectively.
(§4) The mass spectrometry analysis was performed on a SCIEX ZenoTOF™ 7600 system (AB SCIEX, United States), which was calibrated in the high-sensitivity mode for every 10 samples. Spectra were acquired in the TOF/MS-IDA-TOF MS/MS mode with the ESI source operating in positive and negative ion modes. MS parameters were set as follows: ionization source, ESI; spray voltage, 5,500 kV/–4,500 kV; collision energy, 40 V/–40 V; declustering potential, 80 V/–80 V; ion source temperature, 550°C; and scan range, 100–1250 m/z. Data acquisition and processing were performed using SCIEX OS 2.2 and PeakView 2.2.
(§5) A semi-quantitative method was adopted based on the correction peak area versus time ([Wang et al., 2011]; [Lin et al., 2019]). The mean serum time-course profile of pharmacokinetics based on the peak area ratio versus time was plotted using Origin 2018. The kinetic analysis of the peak area ratio (×1,000)–time curve was calculated using Phoenix WinNonlin 8.1 (Phoenix, American) software and illustrated.

DN mice = system: DN mice; parameters: method as in Tian et al., 2018; conditions: ref Tian et al., 2018; cited from earlier work
[2] = Multi-compound pharmacokinetics of ZJTSD in rat serum, semi-quantitative UPLC-Q/TOF-MS (peak area ratio versus time, non-compartmental); conditions: for MRT last / Tmax / half-life / MRT: male, Sprague-Dawley, rat, serum (hepatic portal vein blood), po, 1 mL/100 g body weight; for pharmacokinetic behavior compared with other prototype compounds and metabolites (in words): non-compartmental analysis
Method: as §1, §2, §3, §4, §5

[3] = t1/2, prototype compounds of ZJTSD absorbed into rat serum, mean±SD, n=3
[4] = prototype compounds of ZJTSD absorbed into rat serum, mean±SD, n=3, in h
[5] = elimination half-life (t1/2), rat hepatic portal vein serum after oral ZJTSD, semi-quantitative peak area ratio

detection in serum / absorbed form ([1]; po): detected in vivo
SMILES: O=C1C[C@@H](c2ccc(O)cc2)Oc2cc(O)ccc21 [M18]

AUC (in words) ([1]; po): greater
Tmax ([1]; po): ≤ 3.5 h
elimination half-life (t1/2) ([1]; po): less than 4 h
pharmacokinetic behavior compared with other prototype compounds and metabolites (in words) ([1]; po): better pharmacokinetic behavior
SMILES: Cc1ccc2c(c1)C(=O)c1cc(OS(=O)(=O)O)ccc1C2=O [M26]

AUC (in words) ([1]; po): greater
Tmax ([1]; po): ≤ 3.5 h
elimination half-life (t1/2) ([1]; po): less than 4 h
pharmacokinetic behavior compared with other prototype compounds and metabolites (in words) ([1]; po): better pharmacokinetic behavior
SMILES: O=C(O)c1cc2c(cc1O)C(=O)c1ccccc1C2=O [M28]

SMILES: O=C1c2ccccc2C(=O)c2ccccc21 [M52]
AUC (in words) ([1]; po): greater
Cmax / peak concentration (in words) ([1]; po): higher peak concentrations
Tmax ([1]; po): > 4 h
pharmacokinetic behavior compared with other prototype compounds and metabolites (in words) ([1]; po): better pharmacokinetic behavior

AUC (in words) ([1]; po): greater
Cmax / peak concentration (in words) ([1]; po): higher peak concentrations
Tmax ([1]; po): ≤ 3.5 h
elimination half-life (t1/2) ([1]; po): > 7.5 h
pharmacokinetic behavior compared with other prototype compounds and metabolites (in words) ([1]; po): better pharmacokinetic behavior
time to peak (in words) ([1]; po): faster time to peak
SMILES: Cc1cc(O)c2c(c1)C(=O)c1cccc(O)c1C2=O [M56]

AUC (in words) ([1]; po): greater
SMILES: Cc1cc(O)c2c(c1)C(=O)c1cc(O)ccc1C2=O [M61]

AUC (in words) ([1]; po): greater
Tmax ([1]; po): ≤ 3.5 h
elimination half-life (t1/2) ([1]; po): less than 4 h
pharmacokinetic behavior compared with other prototype compounds and metabolites (in words) ([1]; po): better pharmacokinetic behavior
SMILES: CC(=O)CCc1ccc(OS(=O)(=O)O)cc1 [M85]

AUC (in words) ([1]; po): greater
Tmax ([1]; po): ≤ 3.5 h
elimination half-life (t1/2) ([1]; po): > 7.5 h
pharmacokinetic behavior compared with other prototype compounds and metabolites (in words) ([1]; po): better pharmacokinetic behavior
SMILES: Oc1ccccc1O [M94]

Tmax ([1]; po): ≤ 3.5 h
elimination half-life (t1/2) ([1]; po): > 7.5 h
pharmacokinetic behavior compared with other prototype compounds and metabolites (in words) ([1]; po): better pharmacokinetic behavior
SMILES: C[N+](C)(C)CCOP(=O)([O-])OCC(O)COCCCCCCCCCCCCCCC=O (stereo not shown) [M99]

AUC(0→t) [1]: 1.05±0.08
Cmax [1]: 0.23±0.06
MRT(0→t) [1]: 6.76±1.16
Tmax [1]: 0.92±0.95
t1/2 [1]: 7.53±1.65
SMILES: Cc1cc(O[C@@H]2O[C@H](CO)[C@@H](O)[C@H](O)[C@H]2O)cc2oc(CC(C)O)cc(=O)c12 (stereo partly drawn) [P7, 2-(2-Hydroxypropyl)-5-methyl-7-hydroxychromone-7-O-β-D-glucoside]

AUC(0→t) [1]: 3.73±0.45
Cmax [1]: 0.77±0.18
MRT(0→t) [1]: 6.10±1.53
Tmax [1]: 0.42±0.14
t1/2 [1]: 4.16±2.01
SMILES: COc1ccc2c(c1OC)O[C@H]1c3ccc(O)cc3OC[C@@H]21 [P8, Methylnissolin]

AUC(0→t) [1]: 1.99±0.28
Cmax [1]: 0.80±0.39
MRT(0→t) [1]: 4.70±1.01
Tmax [1]: 0.92±0.95
t1/2 [1]: 3.56±1.89
SMILES: COc1cc2c(=O)c(-c3ccc(O)cc3)coc2cc1O[C@@H]1O[C@H](CO)[C@@H](O)[C@H](O)[C@H]1O [P9, Glycitin]

AUC(0→t) [1]: 119599.26±21102.35
Cmax [1]: 26478.39±12536.14
level of exposure in the blood (in words) ([1]; po): higher level of exposure
MRT last (in vivo): 4.89 ± 0.61 h
Tmax (in vivo): 1.67 ± 2.02 h
half-life (in vivo): 2.42 ± 1.63 h
SMILES: Cc1cc(O)c2c(c1)C(=O)c1cccc(O)c1C2=O [P13, Chrysophanol]
effect on progression of DN (DN): significantly slowed the progression of DN

SMILES: Cc1cc(O)c2c(c1)C(=O)c1cc(O)cc(O)c1C2=O [P16, Emodin]
effect on urinary albumin, serum creatinine and blood urea nitrogen (DN mice): improved urinary albumin, serum creatinine, and blood urea nitrogen levels
MRT last [2]: 5.84 ± 0.37 h
Tmax [2]: 2.83 ± 2.02 h
half-life [2, 3]: 8.19 ± 9.39 h
detection in serum / absorbed form ([1]; po): absorbed as prototype compounds

AUC(0→t) [1]: 406691.82±79143.95
Cmax [1]: 79253.50±34585.36
MRT(0→t) [1]: 5.64±1.31
t1/2 [1]: 1.98±0.38
SMILES: Cc1cc(O)c2c(c1)C(=O)c1cc(C(=O)O)cc(O)c1C2=O [P19, 6-Methyl-rhein]

AUC(0→t) [1]: 49952.22±8257.37
Cmax [1]: 15105.85±4254.91
MRT(0→t) [1]: 4.30±0.34
Tmax [1]: 0.67±0.29
t1/2 [1]: 3.38±0.96
level of exposure in the blood (in words) ([1]; po): higher level of exposure
pharmacokinetic behavior compared with other prototype compounds and metabolites (in words) ([1]; po): better pharmacokinetic behavior
SMILES: COc1cccc2c1C(=O)c1c(O)cc(C)cc1C2=O [P20, 8-Methyl chrysophanol]

MRT last [2]: 12.4 ± 0.14 h
Tmax [2]: 1.08 ± 0.88 h
SMILES: N[C@@H](Cc1c[nH]c2ccccc12)C(=O)O [P23, Tryptophan]

MRT last [2]: 9.9 ± 0.35 h
Tmax [2]: 2.75 ± 2.95 h
half-life [2, 3]: 21.1 ± 10.2 h
SMILES: N[C@@H](Cc1c[nH]cn1)C(=O)O [P24, Histidine]

MRT last [2]: 12.5 ± 1.36 h
Tmax [2]: 2.17 ± 3.32 h
SMILES: CSCC[C@H](N)C(=O)O [P25, L-Methionine]

MRT last [2]: 11.1 ± 0.44 h
Tmax [2]: 0.5 h
half-life [2, 3]: 47.1 ± 35.8 h
SMILES: O=C(O)[C@@H]1CCCN1 [P26, Proline]

AUC(0→t) [1]: 269.12±44.99
Cmax [1]: 44.36±4.60
MRT(0→t) [1]: 5.85±0.84
Tmax [1]: 5.33±2.31
t1/2 [1]: 7.21
SMILES: CC(CO)C1=C(O)c2ccc3c(c2C(=O)C1=O)CCCC3(C)C (stereo not shown) [P31, Tanshinone V]

MRT last [2]: 13.9 ± 1.35 h
Tmax [2]: 14 ± 9.17 h
SMILES: COC(=O)C1CCC(=O)N1 (stereo not shown) [P33, 5-Oxo-pyrrolidine-2-carboxylic acid methyl ester]

MRT(0→t) [2, 4]: 3.96±0.32
t1/2 [2, 4]: 3.76±1.03
SMILES: O=C1CCCn2c(CO)ccc21 [P34, Polygonatine A]

MRT last [2]: 10.8 ± 0.64 h
Tmax [2]: 6.67 ± 4.62 h
half-life [2, 3]: 24.2 ± 14.5 h
SMILES: C[N+](C)(C)CC(=O)O [P35, Betaine]

MRT last [2]: 5.15 ± 0.25 h
Tmax [2]: 1.58 ± 2.1 h
half-life [2, 3]: 25.8 ± 26.4 h
SMILES: O=C(O)/C=C/c1ccccc1 [P36, Cinnamic acid]

SMILES: O=C(O)C=Cc1ccc(O)cc1 [P37, p-Coumaric acid]
MRT last [2]: 3.97 ± 0.59 h
Tmax [2]: 1.58 ± 2.1 h
half-life [2, 3]: 3.23 ± 0.95 h
level of exposure in the blood (in words) ([2]; rat serum after oral ZJTSD): higher level of exposure
pharmacokinetic behavior compared with other prototype compounds and metabolites (in words) ([2]; rat serum after oral ZJTSD): better pharmacokinetic behavior

MRT last [2]: 4.36 ± 1.52 h
Tmax [2]: 0.5 h
half-life [2, 3]: 4.77 ± 1.43 h
SMILES: COc1cc2ccc(=O)oc2cc1O [P38, Scopoletin]

SMILES: O=c1ccc2cc(O)c(O)cc2o1 [P39, Esculetin]
MRT last [2]: 4.92 ± 0.8 h
Tmax [2]: 0.33 ± 0.14 h
half-life [2, 3]: 4.4 ± 3.9 h

MRT [2]: 9.56 h
MRT last [2]: 9.56 ± 1.76 h
Tmax [2]: 3.33 ± 1.16 h
half-life [2, 5]: 21 h
half-life [2, 3]: 24.7 ± 23.6 h
AUC (in words) ([2]; rat serum after oral ZJTSD, peak area ratio versus time): largest
SMILES: O=C(O)CC(O)(CC(=O)O)C(=O)O [P40, Citric acid]

MRT last [2]: 9.15 ± 0.95 h
Tmax [2]: 2.75 ± 2.17 h
half-life [2, 3]: 19.4 ± 2.9 h
pharmacokinetic behavior compared with other prototype compounds and metabolites (in words) ([2]; rat serum after oral ZJTSD): better pharmacokinetic behavior
SMILES: O=C(O)c1ccc(O)cc1 [P41, p-Hydroxybenzoic acid]

MRT last [2]: 10.2 ± 0.64 h
Tmax [2]: 10.7 ± 2.31 h
SMILES: C=Cc1ccc(O)c(OC)c1 [P42, 4-Vinyl-2-methoxyphenol]

SMILES: CCCCCCCCCCCCCCCCOC[C@@H](O)COP(=O)([O-])OCC[N+](C)(C)C [P44, 1-O-Hexadecyl-sn-glycero-3-phosphocholine]
MRT last [2]: 11.9 ± 0.91 h
Tmax [2]: 0.58 ± 0.38 h
half-life [2, 3]: 33.1 ± 13.3 h

SMILES: CCCCCCCCCCCCCCCCCC(=O)OC[C@@H](O)COP(=O)([O-])OCC[N+](C)(C)C [P45, 1-O-Octadecanoyl-sn-glycero-3-phosphocholine]
MRT [2]: 9.91 h
MRT last [2]: 9.91 ± 0.56 h
Tmax [2]: 2 h
half-life [2, 5]: 21 h
half-life [2, 3]: 21.9 ± 6.81 h
pharmacokinetic behavior compared with other prototype compounds and metabolites (in words) ([2]; rat serum after oral ZJTSD): better pharmacokinetic behavior

MRT last [2]: 12.7 ± 0.3 h
Tmax [2]: 12.1 ± 11.9 h
SMILES: O=Cc1c[nH]c2ccccc12 [P46, Indole-3-carbaldehyde]

MRT last [2]: 11.8 ± 0.21 h
Tmax [2]: 12 h
SMILES: O=C1CCCCN1 [P47, 2-Piperidone]

SMILES: CCCCOC(=O)c1ccccc1C(=O)OCCCC [P49, Dibutyl phthalate]
AUC(0→t) [1]: 542.84±7.58
Cmax [1]: 26.50±1.13
MRT last (in vivo): 12.1 ± 0.17 h
Tmax (in vivo): 8.08 ± 6.78 h

SMILES: CCCCCCCCCCCCCCCC(=O)OC[C@@H](O)COP(=O)([O-])OCC[N+](C)(C)C [P50, 1-O-Hexadecanoyl-sn-glycero-3-phosphocholine]
AUC(0→t) [1]: 149276.86±8351.53
Cmax [1]: 11488.73±739.96
MRT last (in vivo): 10.2 ± 0.58 h
Tmax (in vivo): 1 ± 0.87 h
half-life (in vivo): 21.9 ± 12.8 h

MRT last [2]: 4.2 ± 0.25 h
Tmax [2]: 4.67 ± 1.16 h
SMILES: CC(=O)/C=C/c1ccc(CO)o1 [P51, (E)-4-[5-(Hydroxymethyl)-2-furanyl]-3-butene-2-one]

detection in serum / absorbed form ([1]; po): not detected in the serum
SMILES: O=C1C[C@@H](c2ccc(O[C@@H]3O[C@H](CO)[C@@H](O)[C@H](O)[C@H]3O)cc2)Oc2cc(O)ccc21 [liquiritin]
